Earlier results as cited in patent publication US20040057977A1, “Water-based pest bait compositions having water-sensitive insecticides and methods of making and use thereof” (priority 1999, published 2004).

What was measured:
[1] = tested on: cockroaches; conditions: in vivo
[2] = in vivo

Compound	time to kill cockroaches [1]	eye and lung irritation [2]
COP(=O)(NC(C)=O)SC (stereo not drawn) [Acephate, O,S-dimethyl acetylphosphoramidothioate]	within about two hours	
OB(O)O [boric acid]	roughly one week	slight eye and lung irritation
